Laboratory results taken from patent EP4167978B1, “USE OF JUNIPER (JUNIPERUS COMMUNIS) BERRIES EXTRACT, DEOXYPODOP[…] […], AS POSITIVE ALLOSTERIC MODULATORS OF CANNABINOID TYPE 1 RECEPTOR FOR TREATING NEUROPATHIC PAIN AND IN[…]” (Vivacell Biotechnology Espana S.L., priority 2020, dated 2022).

Legend:
human CB1R [1] = target: T1, human CB1R (Homo sapiens, UniProt P21554); assay: CB1R agonistic activity, CRE-luciferase reporter without CP-55,940; format: cell-based; settings: HEK293T-CB1-CRE-luc cells, compound alone
T1 construct: expressed in transfected cells; host or cells: HEK293T (HEK293T-CB1-CRE-Luc)
Experimental: The determination of CB1R activity was carried out using the HEK293T-CB1-CRE-Luc cells stably transfected with the human CB1R cDNA, and a construction of CRE-Luc that contains as promoter six consensus cAMP responsive elements (CRE) linked to firefly luciferase reporter gene. The increase in cAMP levels activates the CRE-Luc system, inducing the expression of the luciferase reporter gene. Briefly, HEK293T-CB1-CRE-Luc cells were cultured in supplemented DMEM (Sigma) medium containing 10% FBS (Gibco) and 1% antibiotics penicillin/streptomycin (Sigma) (DMEM complete medium) and maintained at 37° C in a humidified atmosphere of 5% CO2. […] Luciferase activity was measured using a TriStar2 Berthold/LB942 multimode reader (Berthold Technologies) following the instructions of the luciferase assay kit (Promega, Madison, Wl, USA). The RLUs (relative light units) were calculated and: (i) For allosteric activity, results were expressed as percentage of CB1R activity normalized to 100% stimulation induced by 2.5 µM CP-55,940, according to the following formula: Percentage of CB1R activity = 100 * (T - B) / (C - B); where T are the RLUs of the cells treated with the fractions and 2.5 µM CP-55,940; C are the RLUs of the cells treated with CP-55,940 alone, and B are the RLUs of the cells without stimulus. […]

human CB1R [2] = target: T1, human CB1R; assay: CB1R positive allosteric modulation (PAM) activity, CRE-luciferase reporter in the presence of the orthosteric agonist CP-55,940; format: cell-based; settings: for percentage of CB1R activity normalized to 100% stimulation induced by 2.5 µM CP-55,940 alone: HEK293T-CB1-CRE-luc cells, tested at 1, 5, 10 and 25 µg/mL in the presence of 2.5 µM CP-55,940, CB1R activity ≥ 150% is considered CB1R PAM activity; for CB1R PAM activity: result in words, HEK293T-CB1-CRE-luc cells with 2.5 µM CP-55,940
Experimental: The determination of CB1R activity was carried out using the HEK293T-CB1-CRE-Luc cells stably transfected with the human CB1R cDNA, and a construction of CRE-Luc that contains as promoter six consensus cAMP responsive elements (CRE) linked to firefly luciferase reporter gene. The increase in cAMP levels activates the CRE-Luc system, inducing the expression of the luciferase reporter gene. Briefly, HEK293T-CB1-CRE-Luc cells were cultured in supplemented DMEM (Sigma) medium containing 10% FBS (Gibco) and 1% antibiotics penicillin/streptomycin (Sigma) (DMEM complete medium) and maintained at 37° C in a humidified atmosphere of 5% CO2. The day before the assay 10^4 cells per well were seeded in 96 well-plates and incubated overnight. For determining CB1R positive allosteric modulation (PAM) activity, HEK293T-CB1-CRE-Luc cells were treated with increasing concentrations of the fractions for 30 min and then treated with the CB1R orthosteric agonist CP-55,940 at 2.5 µM. For CB1R agonistic activity, HEK293T-CB1-CRE-Luc cells were treated with increasing concentrations of the fractions. CP-55,940 alone, a CB1R orthosteric agonist, was used at 2.5 µM as positive control of cAMP signaling pathway activated by a CB1R-dependent orthosteric mechanism; and cells without stimulus were used as negative control. In both assays, after 6 h of stimulation, cells were washed twice with PBS 1X and lysed in 100 µL lysis buffer containing 25 mM Tris-phosphate (pH 7.8), 8 mM MgCl2, 1 mM DTT, 1% Triton X-100, and 7% glycerol during 15 min at room temperature in a horizontal shaker. Luciferase activity was measured using a TriStar2 Berthold/LB942 multimode reader (Berthold Technologies) following the instructions of the luciferase assay kit (Promega, Madison, Wl, USA). The RLUs (relative light units) were calculated and: (i) For allosteric activity, results were expressed as percentage of CB1R activity normalized to 100% stimulation induced by 2.5 µM CP-55,940, according to the following formula: Percentage of CB1R activity = 100 * (T - B) / (C - B); where T are the RLUs of the cells treated with the fractions and 2.5 µM CP-55,940; C are the RLUs of the cells treated with CP-55,940 alone, and B are the RLUs of the cells without stimulus. CB1R activity ≥ 150% was considered CB1R PAM activity (ii) For the CB1R agonistic activity, results were expressed as a fold change over non-stimulated cells according to the following formula: Fold change of CB1R activity = T / B; where T are RLUs of the cells treated with the fractions and B are the RLUs of the cells without stimulus. CB1R activity ≥ 2.5-fold increase is considered CB1R agonistic activity.

T1 sequence (P21554 whole entry): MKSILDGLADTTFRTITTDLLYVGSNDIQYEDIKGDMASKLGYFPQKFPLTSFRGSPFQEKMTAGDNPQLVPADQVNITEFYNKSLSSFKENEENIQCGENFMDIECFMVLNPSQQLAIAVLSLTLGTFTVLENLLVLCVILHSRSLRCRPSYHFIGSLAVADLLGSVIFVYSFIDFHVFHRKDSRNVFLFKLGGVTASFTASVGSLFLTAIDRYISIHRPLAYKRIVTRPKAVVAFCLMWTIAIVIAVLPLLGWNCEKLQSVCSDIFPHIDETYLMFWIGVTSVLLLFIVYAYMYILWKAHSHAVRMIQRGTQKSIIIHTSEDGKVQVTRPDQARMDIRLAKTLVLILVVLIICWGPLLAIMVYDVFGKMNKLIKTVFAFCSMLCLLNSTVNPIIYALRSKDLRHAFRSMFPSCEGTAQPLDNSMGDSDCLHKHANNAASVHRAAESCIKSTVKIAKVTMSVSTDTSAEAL

SMILES | CB1R agonistic activity on cAMP signaling pathway (human CB1R [1]; at high concentrations, ≥ 2.5-fold increase over non-stimulated cells is considered agonistic) | CB1R agonistic activity on cAMP signaling pathway (human CB1R [1]; at the lower tested concentration) | percentage of CB1R activity normalized to 100% stimulation induced by 2.5 µM CP-55,940 alone (human CB1R [2]) | CB1R PAM activity (human CB1R [2]) | CB1R PAM activity (human CB1R [2]; listed as Agathadiol)
C=C1CC[C@H]2[C@@](C)(CO)CCC[C@]2(C)[C@H]1CC/C(C)=C/CO [agathadiol, (E)-5-[(1S,4aR,5S,8aR)-5-(hydroxymethyl)-5,8a-dimethyl-2-methylidene-3,4,4a,6,7,8-hexahydro-1H-naphthalen-1-yl]-3-methylpent-2-en-1-ol] | medium CB1R agonistic activity | residual | over 1000% | clear CB1R PAM activities at a range of concentrations | increasingly stronger bioactive effect as PAM of CB1R with increasing concentrations
COc1cc([C@H]2c3cc4c(cc3C[C@@H]3COC(=O)[C@H]32)OCO4)cc(OC)c1OC [deoxypodophyllotoxin, (5S,5aS,8aS)-5-(3,4,5-trimethoxyphenyl)-5a,8,8a,9-tetrahydro-5H-[2]benzofuro[5,6-f][1,3]benzodioxol-6-one] | – | – | over 1000% | clear CB1R PAM activities at a range of concentrations | –
